Here are results for three compounds from patent US20170319572A1, “COMBINATION DRUG TREATMENT FOR HEPATITIS C INFECTION” (JANSSEN PHARMACEUTICALS, INC., priority 2015, published 2017).

The structures appear in SMILES notation. Entries after “also recorded” stand apart in the source; their conditions may differ.

Data set [1] in a line: Drug-drug interaction study in humans (Phase-1, open-label, two-group, fixed-sequence, PK). The settings on record: for increase of exposure caused by Odalasvir: co-administration of Odalasvir; for increase of exposure caused by SMV: co-administration of SMV. The protocol:
A drug-drug interaction study (DDI) study is a study designed to investigate whether a drug alters the pharmacokinetics of another drug or drugs or their metabolites.
Compound (III)—Subjects received 800 mg of Compound (III) once daily from Days 1-3, Days 11-13, and Days 21-23. PK blood samples for determination of Compound (III) and metabolite concentrations were collected in reference to the Day 3, Day 13, and Day 23 doses.
Simeprevir—Subjects received 150 mg of Simeprevir (SMV) once daily from Days 4-23. PK blood samples for determination of SMV concentrations were collected in reference to the Day 10, Day 13, Day 20, and Day 23 doses.
Odalasvir—Subjects received a loading dose of 150 mg on Day 14, and 50 mg of Odalasvir once daily from Days 15-23. PK blood samples for determination of Odalasvir concentrations were collected in reference to the Day 20 and Day 23 doses.
Compound (III)—Subjects received 800 mg of Compound (III) once daily from Days 1-3, Days 11-13 and Days 21-23. PK blood samples for determination of Compound (III) and metabolite concentrations were collected in reference to the Day 3, Day 13, and Day 23 doses.
Simeprevir—Subjects receive 150 mg of SMV once daily from Days 4-23. PK blood samples for determination of SMV concentrations were collected in reference to the Day 20 and Day 23 doses.
Odalasvir—Subjects receive a loading dose of 150 mg on Day 4, and 50 mg of Odalasvir once daily from Days 5-23. PK blood samples for determination of Odalasvir concentrations were collected in reference to the Day 10, Day 13, Day 20, and Day 23 doses.
This drug-drug interaction study was intended to assess the safety and tolerability of the described drug combinations at pre-defined time points throughout the study. Study completion/follow-up visit(s) were performed 7 and 28 days after completion of the last study assessment.
A primary objective was to evaluate the effect of multiple oral doses of Odalasvir (alone), Simeprevir (alone), and Odalasvir and Simeprevir on the multiple oral dose PK of Compound (III) (and certain metabolites thereof, such as the major metabolites in systemic circulation) in healthy volunteers. Other objectives were to evaluate the safety and tolerability of multiple oral doses of Compound (III) when administered alone and in combination with single and multiple oral doses of Odalasvir and/or Simeprevir in healthy volunteers; to determine the potential effect of Compound of Compound (III) and/or Odalasvir on the steady-state PK of Simeprevir in healthy volunteers; to determine the potential effect of Compound of Compound (III) and/or Simeprevir on the steady state PK of Odalasvir in healthy volunteers.
Various other PK parameters were estimated including: Clast, t1/2, Tmax, Tlast, CL/F, Vz/F, and λz.
The following daily doses were employed:
Odalasvir: 150 mg loading dose; 50 mg for the remainder of the study period.

Data set [2] is described as follows: Phase 2a open-label combination study, pharmacokinetics and safety. Type of data set: in vivo, human. Particulars: for change of exposure on reducing SMV dosing from 100 mg to 75 mg QD: in vivo. As for the experimental part:
A randomized, Phase 2a, open-label study was carried out to evaluate the safety, pharmacokinetics and efficacy of the combination of Compound (III), Odalasvir and Simeprevir in Genotype 1 treatment-naïve subjects with chronic hepatitis C. Other treatment-naïve subjects included Genotype 2, 3, 4, 5 and 6. The aim of the study was to determine the efficacy, pharmacokinetics (PK), and safety of Compound (III)+Odalasvir±SMV in HCV-infected subjects. […] Efficacy, PK and safety evaluations were conducted during and through 24 weeks post dosing. Up to 15 cohorts were enrolled; data was generated from cohorts that have completed dosing.

The conditions of data set [3]: SMV co-administered with Digoxin (a pgp-substrate); cited from earlier work.
Another data set has as its target Pgp (Homo sapiens, UniProt P08183). Particulars: cited from earlier work.
Another data set concerns NTCP. The settings on record: printed: other OATPs NTCP; read-out: NTCP inhibition IC50; cited from earlier work.
For a further data set, the system named is CYP (any CYP). Put plainly: CYP inhibition. The settings on record: on any CYP.
For data set [4] the following is noted: SMV co-administered with Rosuvastatin (substrate of OATPs & BCRP); cited from earlier work.

Pgp, sequence (P08183 whole entry): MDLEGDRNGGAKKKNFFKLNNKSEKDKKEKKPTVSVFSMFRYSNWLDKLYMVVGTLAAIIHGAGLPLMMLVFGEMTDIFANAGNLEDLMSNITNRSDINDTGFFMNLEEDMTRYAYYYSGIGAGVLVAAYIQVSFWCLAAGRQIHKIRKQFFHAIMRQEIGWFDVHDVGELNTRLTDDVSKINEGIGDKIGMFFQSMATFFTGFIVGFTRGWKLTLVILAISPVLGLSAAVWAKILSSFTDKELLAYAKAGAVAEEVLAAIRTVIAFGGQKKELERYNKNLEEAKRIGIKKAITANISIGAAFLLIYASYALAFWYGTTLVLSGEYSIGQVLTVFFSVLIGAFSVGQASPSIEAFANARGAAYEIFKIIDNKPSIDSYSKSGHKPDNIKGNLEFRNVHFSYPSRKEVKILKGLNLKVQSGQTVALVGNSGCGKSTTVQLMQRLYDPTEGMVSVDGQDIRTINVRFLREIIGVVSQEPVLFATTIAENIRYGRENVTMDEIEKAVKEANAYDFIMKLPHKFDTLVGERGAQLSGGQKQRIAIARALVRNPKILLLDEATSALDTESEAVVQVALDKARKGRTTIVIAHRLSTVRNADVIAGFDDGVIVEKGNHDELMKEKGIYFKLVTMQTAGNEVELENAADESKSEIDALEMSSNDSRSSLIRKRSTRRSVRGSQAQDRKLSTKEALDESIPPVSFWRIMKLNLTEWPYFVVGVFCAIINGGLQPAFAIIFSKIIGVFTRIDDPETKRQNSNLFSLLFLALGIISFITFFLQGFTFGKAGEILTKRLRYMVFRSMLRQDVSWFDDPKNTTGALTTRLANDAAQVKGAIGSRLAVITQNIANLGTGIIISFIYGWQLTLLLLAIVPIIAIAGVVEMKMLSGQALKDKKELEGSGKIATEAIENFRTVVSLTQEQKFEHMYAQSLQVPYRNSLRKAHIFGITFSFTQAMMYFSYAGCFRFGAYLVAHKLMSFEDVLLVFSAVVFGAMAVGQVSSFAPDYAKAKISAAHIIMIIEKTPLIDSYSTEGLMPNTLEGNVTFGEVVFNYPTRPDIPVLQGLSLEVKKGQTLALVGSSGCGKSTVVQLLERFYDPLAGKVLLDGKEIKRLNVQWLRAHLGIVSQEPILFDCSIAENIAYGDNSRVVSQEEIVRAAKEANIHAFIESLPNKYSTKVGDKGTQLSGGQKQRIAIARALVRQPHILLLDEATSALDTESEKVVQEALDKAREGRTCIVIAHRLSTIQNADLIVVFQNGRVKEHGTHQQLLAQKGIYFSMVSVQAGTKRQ

Consider `C[C@H](NP(=O)(O)OC[C@@]1(F)O[C@@H](n2ccc(=O)[nH]c2=O)[C@](C)(O)[C@@H]1O)C(=O)O` [Compound A-3], for which, in data set [1] (DDI study), the “increase of exposure caused by Odalasvir” value is 2.6 × and the “increase of exposure caused by SMV” value amounted to 1.6 ×.
For the compound `C[C@]1(O)[C@H](n2ccc(=O)[nH]c2=O)O[C@](F)(CO)[C@H]1O` [Compound A-1], the “change of exposure on increasing Compound (III) dose from 400 to 800 mg” value in data set [2] (HCV patients) was “less than proportionally”. Moreover, in data set [1] (DDI study), the “increase of exposure caused by Odalasvir” value is 1.5 × and the “increase of exposure caused by SMV” value is listed as “no apparent effect”.
As usually defined, the IC50 is the point on the concentration scale where inhibition reaches its midpoint. For the compound `COc1ccc2c(O[C@@H]3C[C@H]4C(=O)N[C@]5(C(=O)NS(=O)(=O)C6CC6)C[C@H]5/C=C\CCCCN(C)C(=O)[C@@H]4C3)cc(-c3nc(C(C)C)cs3)nc2c1C` [SMV, Simeprevir, reference compound], the “increase in exposure of Digoxin” value in data set [3] was 35%. At Pgp, the “in vitro inhibition of Pgp” value is “strong/moderate in vitro inhibition”. Further, the “observed exposure in Cohort 1 / group (i)” value in data set [2] (Compound (III) 400 mg, ODV 50 mg QD, SMV 100 mg QD) is “higher than anticipated”. Further, the “change of exposure on reducing SMV dosing from 100 mg to 75 mg QD” value in data set [2] is “decreased SMV exposure less than proportionally”; in data set [2] (listed as Simeprevir), “decreased Simeprevir exposure less than proportionally”. The IC50 with NTCP was 2200 nM. Moreover, the CYP inhibition potential entry in the data set with CYP (any CYP) is reported as “limited”. Moreover, the “increase of exposure, effect of the three Compounds” value in data set [1] (DDI study, Compound (III) + SMV + Odalasvir together) was 1.6 ×. Besides, the “effect of Compound (III) on exposure/bioavailability” value in data set [1] (DDI study, co-administration of Compound (III)) is “no apparent effect; also recorded: does not alter the bioavailability”. In addition, the “increase of exposure caused by Odalasvir” value in data set [1] (DDI study) was 1.6 ×. Also, the “increase of exposure in the combination” value in data set [1] (human in vivo study (Example 1), three drugs combined) is listed as 1.6 times. For the same compound, the “increase of bioavailability by ODV” value in data set [1] (human subjects) stood at 1.6 fold. In addition, in data set [4], the “increase in Rosuvastatin exposure” value was 3 fold.
